According to ChEMBL document CHEMBL3352438, “Synthesis, characterization, molecular docking and anti-tubercular activity of Plumbagin-Isoniazid Analog and its β-cyclodextrin conjugate” (2014):
In brackets after ≈: the same amount, converted by molar mass.

Columns and labels:
Format in all cases: functional
Settings in all cases: ATCC 27294, 120 h
[1] = tested on: Mycobacterium tuberculosis; assay: Antitubercular activity against Mycobacterium tuberculosis ATCC 27294 in high iron condition after 5 days by Alamar blue assay
[2] = tested on: Mycobacterium tuberculosis; assay: Antitubercular activity against Mycobacterium tuberculosis ATCC 27294 in 7H9 medium after 5 days by Alamar blue assay
[3] = tested on: Mycobacterium tuberculosis; assay: Antitubercular activity against Mycobacterium tuberculosis ATCC 27294 in low iron condition after 5 days by Alamar blue assay

Row | SMILES | MIC [1] | MIC [2] | MIC [3]
1 | CC1=CC(=O)c2c(O)cccc2C1=O [PLUMBAGIN] | 4 µg/mL (≈ 21.3 µM) | 32 µg/mL (≈ 170 µM) | 128 µg/mL (≈ 680 µM)
2 | CC1=C/C(=N\NC(=O)c2ccncc2)c2c(O)cccc2C1=O | 0.5 µg/mL (≈ 1.63 µM) | 8 µg/mL (≈ 26 µM) | 2 µg/mL (≈ 6.51 µM)
3 | NNC(=O)c1ccncc1 [ISONIAZID] | 0.125 µg/mL (≈ 0.911 µM) | 0.25 µg/mL (≈ 1.82 µM) | 32 µg/mL (≈ 233 µM)
